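1) Cells in 96-well plates. 2) Compound, 48 h, 5 concentrations. 3) Linear interpolation between surrounding doses. 4) Unreached endpoint = highest concentration. At the TGI there is no net growth.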
What was measured:
Test in all cases: NCI-60 cell line screen, 48 h
786-0 renal = tested on: 786-0 renal
A498 renal = tested on: A498 renal
A549 NSCLC = tested on: A549 NSCLC
ACHN renal = tested on: ACHN renal
BT-549 breast = tested on: BT-549 breast
CAKI-1 renal = tested on: CAKI-1 renal
CCRF-CEM leukemia = tested on: CCRF-CEM leukemia
COLO 205 colon = tested on: COLO 205 colon
DU-145 prostate = tested on: DU-145 prostate
EKVX NSCLC = tested on: EKVX NSCLC
HCT-116 colon = tested on: HCT-116 colon
HL-60(TB) leukemia = tested on: HL-60(TB) leukemia
HOP-62 NSCLC = tested on: HOP-62 NSCLC
HOP-92 NSCLC = tested on: HOP-92 NSCLC
HS 578T breast = tested on: HS 578T breast
HT29 colon = tested on: HT29 colon
IGROV1 ovarian = tested on: IGROV1 ovarian
K-562 leukemia = tested on: K-562 leukemia
KM12 colon = tested on: KM12 colon
LOX IMVI melanoma = tested on: LOX IMVI melanoma
M14 melanoma = tested on: M14 melanoma
MALME-3M melanoma = tested on: MALME-3M melanoma
MCF7 breast = tested on: MCF7 breast
MDA-MB-231 breast = tested on: MDA-MB-231 breast
MDA-MB-435 = tested on: MDA-MB-435
MDA-N = tested on: MDA-N
MOLT-4 leukemia = tested on: MOLT-4 leukemia
NCI-H226 lung = tested on: NCI-H226 lung
NCI-H23 lung = tested on: NCI-H23 lung
NCI-H522 lung = tested on: NCI-H522 lung
NCI/ADR-RES ovarian = tested on: NCI/ADR-RES ovarian
OVCAR-3 ovarian = tested on: OVCAR-3 ovarian
OVCAR-5 ovarian = tested on: OVCAR-5 ovarian
OVCAR-8 ovarian = tested on: OVCAR-8 ovarian
PC-3 prostate = tested on: PC-3 prostate
RPMI-8226 leukemia = tested on: RPMI-8226 leukemia
RXF 393 renal = tested on: RXF 393 renal
SF-268 CNS = tested on: SF-268 CNS
SF-295 CNS = tested on: SF-295 CNS
SK-MEL-2 melanoma = tested on: SK-MEL-2 melanoma
SK-MEL-28 melanoma = tested on: SK-MEL-28 melanoma
SK-MEL-5 melanoma = tested on: SK-MEL-5 melanoma
SK-OV-3 ovarian = tested on: SK-OV-3 ovarian
SN12C renal = tested on: SN12C renal
SNB-75 CNS = tested on: SNB-75 CNS
SR leukemia = tested on: SR leukemia
SW-620 colon = tested on: SW-620 colon
T-47D breast = tested on: T-47D breast
TK-10 renal = tested on: TK-10 renal
U251 CNS = tested on: U251 CNS
UACC-257 melanoma = tested on: UACC-257 melanoma
UACC-62 melanoma = tested on: UACC-62 melanoma
UO-31 renal = tested on: UO-31 renal
HCC-2998 colon = tested on: HCC-2998 colon
HCT-15 colon = tested on: HCT-15 colon
NCI-H460 lung = tested on: NCI-H460 lung
OVCAR-4 ovarian = tested on: OVCAR-4 ovarian
SF-539 CNS = tested on: SF-539 CNS
SNB-19 CNS = tested on: SNB-19 CNS

Measured: TGI

COC(=O)c1cnn2c1n[n+]([O-])c1ccccc12
> 100 µM: 786-0 renal | A498 renal | A549 NSCLC | ACHN renal | BT-549 breast | CAKI-1 renal | CCRF-CEM leukemia | COLO 205 colon | DU-145 prostate | EKVX NSCLC | HCT-116 colon | HL-60(TB) leukemia | HOP-62 NSCLC | HOP-92 NSCLC | HS 578T breast | HT29 colon | IGROV1 ovarian | K-562 leukemia | KM12 colon | LOX IMVI melanoma | M14 melanoma | MALME-3M melanoma | MCF7 breast | MDA-MB-231 breast | MDA-MB-435 | MDA-N | MOLT-4 leukemia | NCI-H226 lung | NCI-H23 lung | NCI-H522 lung | NCI/ADR-RES ovarian | OVCAR-3 ovarian | OVCAR-5 ovarian | OVCAR-8 ovarian | PC-3 prostate | RPMI-8226 leukemia | RXF 393 renal | SF-268 CNS | SF-295 CNS | SK-MEL-2 melanoma | SK-MEL-28 melanoma | SK-MEL-5 melanoma | SK-OV-3 ovarian | SN12C renal | SNB-75 CNS | SR leukemia | SW-620 colon | T-47D breast | TK-10 renal | U251 CNS | UACC-257 melanoma | UACC-62 melanoma | UO-31 renal

Brc1c(C#CCC2CCCCC2)ccc(C#CCC2CCCCC2)c1Br
> 100 µM: 786-0 renal | A498 renal | A549 NSCLC | ACHN renal | BT-549 breast | CAKI-1 renal | CCRF-CEM leukemia | COLO 205 colon | DU-145 prostate | EKVX NSCLC | HCC-2998 colon | HCT-15 colon | HL-60(TB) leukemia | HOP-92 NSCLC | HS 578T breast | IGROV1 ovarian | K-562 leukemia | KM12 colon | LOX IMVI melanoma | M14 melanoma | MALME-3M melanoma | MCF7 breast | MDA-MB-231 breast | MDA-MB-435 | MDA-N | MOLT-4 leukemia | NCI-H226 lung | NCI-H460 lung | NCI-H522 lung | NCI/ADR-RES ovarian | OVCAR-3 ovarian | OVCAR-4 ovarian | OVCAR-5 ovarian | OVCAR-8 ovarian | PC-3 prostate | RPMI-8226 leukemia | RXF 393 renal | SF-268 CNS | SF-295 CNS | SF-539 CNS | SK-MEL-2 melanoma | SK-MEL-28 melanoma | SK-MEL-5 melanoma | SN12C renal | SNB-19 CNS | SNB-75 CNS | SR leukemia | SW-620 colon | T-47D breast | TK-10 renal | U251 CNS | UACC-257 melanoma | UACC-62 melanoma

Cn1cncc1CC1COC(=O)C1C(O)c1ccccc1 (configuration not stated)
> 100 µM: 786-0 renal | A498 renal | A549 NSCLC | ACHN renal | BT-549 breast | CAKI-1 renal | CCRF-CEM leukemia | COLO 205 colon | DU-145 prostate | EKVX NSCLC | HCC-2998 colon | HCT-116 colon | HCT-15 colon | HL-60(TB) leukemia | HOP-62 NSCLC | HOP-92 NSCLC | HS 578T breast | HT29 colon | IGROV1 ovarian | K-562 leukemia | KM12 colon | LOX IMVI melanoma | M14 melanoma | MALME-3M melanoma | MCF7 breast | MDA-MB-231 breast | MDA-MB-435 | MDA-N | MOLT-4 leukemia | NCI-H226 lung | NCI-H23 lung | NCI-H460 lung | NCI-H522 lung | NCI/ADR-RES ovarian | OVCAR-3 ovarian | OVCAR-4 ovarian | OVCAR-5 ovarian | OVCAR-8 ovarian | PC-3 prostate | RPMI-8226 leukemia | RXF 393 renal | SF-268 CNS | SF-295 CNS | SF-539 CNS | SK-MEL-2 melanoma | SK-MEL-28 melanoma | SK-MEL-5 melanoma | SK-OV-3 ovarian | SN12C renal | SNB-19 CNS | SNB-75 CNS | SR leukemia | SW-620 colon | T-47D breast | TK-10 renal | U251 CNS | UACC-257 melanoma | UACC-62 melanoma

CC[C@@H](/C=C\CCC(=O)C[C@H](O)CCC=C(C)C)O[Si](C(C)C)(C(C)C)C(C)C
> 100 µM: 786-0 renal | A498 renal | A549 NSCLC | ACHN renal | BT-549 breast | CAKI-1 renal | CCRF-CEM leukemia | COLO 205 colon | DU-145 prostate | EKVX NSCLC | HCC-2998 colon | HCT-116 colon | HCT-15 colon | HL-60(TB) leukemia | HOP-62 NSCLC | HOP-92 NSCLC | HS 578T breast | HT29 colon | IGROV1 ovarian | K-562 leukemia | KM12 colon | LOX IMVI melanoma | M14 melanoma | MCF7 breast | MDA-MB-231 breast | MDA-MB-435 | MDA-N | MOLT-4 leukemia | NCI-H226 lung | NCI-H23 lung | NCI-H460 lung | NCI-H522 lung | NCI/ADR-RES ovarian | OVCAR-3 ovarian | OVCAR-4 ovarian | OVCAR-5 ovarian | OVCAR-8 ovarian | PC-3 prostate | RPMI-8226 leukemia | RXF 393 renal | SF-268 CNS | SF-295 CNS | SF-539 CNS | SK-MEL-2 melanoma | SK-MEL-28 melanoma | SK-MEL-5 melanoma | SK-OV-3 ovarian | SN12C renal | SNB-19 CNS | SNB-75 CNS | SR leukemia | SW-620 colon | T-47D breast | TK-10 renal | U251 CNS | UACC-257 melanoma | UACC-62 melanoma | UO-31 renal

From PubChem BioAssay (NCI)
